This is an account of results in patent US20230280333A1, “FOREIGN SUBSTANCE INTRODUCTION CONSTRUCT AND USE THEREOF” (TOAGOSEI CO., LTD., priority 2022, published 2023).

Where no end group is shown, it is not given here.

In one experiment the test system is HeLa cells. Briefly: Evaluation of the cell membrane permeability by flow cytometry. It counts as cell-based, human. The following applies: for MFI: mean fluorescent intensity of HeLa cells, 10 μM in culture medium, 0.5% DMSO, 20 hours at 37° C., FL2 detector; for MFI compared between examples, in words / cell membrane permeability, conclusion in words: HeLa cells, 10 μM, 20 hours; for cell membrane permeability, conclusion in words: FAM-labelled constructs. As for the experimental part:
The cell membrane permeability of peptides 1 to 4 was analyzed using HeLa cells (an established cell line derived from human cervical cancer cells) as the eukaryotic cells.
HeLa cells were cultured on DMEM (Dulbecco's modified Eagle's medium (Cat. No. 043-30085, from FUJIFILM Wako Pure Chemical Corporation)) containing 10% FBS (fetal bovine serum), which is a general culture medium.
The HeLa cells attached to the culture plate were washed with PBS, a 0.25% trypsin/EDTA solution was then added, and incubation was carried out for 3 minutes at 37° C. After this incubation, the aforementioned DMEM containing 10% FBS was added and the trypsin was inactivated, and the cells were then sedimented by carrying out centrifugal separation for 5 minutes at 150×g. The supernatant produced by the centrifugal separation was removed, and the aforementioned DMEM containing 10% FBS was added to the sediment (cell pellet) to prepare a cell suspension containing approximately 2×10^5 cells/mL. The cells were seeded (approximately 2×10^5 cells/well) by the addition of 1 mL of this cell suspension to the wells of a commercial 6-well plate (Iwaki). In addition, the 2 mM sample solution 1 was diluted with the aforementioned DMEM containing 10% FBS to prepare a sample solution 1 in which the sample 1 concentration was 20 μM. 1 mL of this 20 sample solution 1 was added to a well (i.e., the concentration of sample 1 in the culture medium in the wells was brought to 10 μM and the DMSO concentration was brought to 0.5%). The cells were subsequently incubated for 20 hours at 37° C. under the condition of 5% CO2.
After this 20-hour incubation, the culture supernatant was removed from a well and the cells in the well were washed twice with 1 mL PBS. 200 μL of a 0.25% trypsin/EDTA solution was then added to the well and incubation was carried out for 3 minutes at 37° C. After this incubation, the trypsin was inactivated by the addition of 400 μL of the aforementioned DMEM containing 10% FBS to the well, and the cells were subsequently recovered by transferring the cell suspension in a well to a tube. The well was then washed by the further addition of 600 μL PBS to the well. The cells that had remained in the well were recovered to the tube by transferring the PBS in the well to the tube. Centrifugal separation was run on this tube for 5 minutes using conditions of 4° C. and 210×g. After the centrifugal separation, the supernatant was removed, the sediment (cell pellet) was suspended (washed) with 1 mL of PBS, and centrifugal separation was carried out using the same conditions as before. After this procedure had been performed twice, the supernatant was removed to obtain cells (cell pellet) that had been cultured on a sample 1-containing culture medium.
The cell permeability of sample 1 was analyzed using the resulting cells (cell pellet) and a flow cytometer. An On-Chip Flow Cytometer (On-chip Biotechnologies Co., Ltd.) was used for the flow cytometer.
For this analysis, the cell pellet obtained as described above was suspended in 50 μL PBS. To this suspension was added 50 μL of Sample Buffer 2× for use with the indicated flow cytometer to prepare a cell suspension for submission to analysis.
Gating was performed using this flow cytometer based on forward scatter (FSC) and side scatter (SSC); the gating was set for the cell population that was the target of the analysis; and the fluorescent intensity was measured for the cell population within this gating. The analysis was performed so the cell count for this cell population reached at least 10,000 or more. The FL2 fluorescence detector (optimal detection wavelength around 543 nm) on the indicated flow cytometer, which could detect the fluorescence wavelength of FAM, was used to measure the fluorescent intensity. […]

Experiment [1] has as its system cell membrane of eukaryotic cells. Briefly: Cell membrane permeability stated by the inventors, no data or method shown. The format is cell-based. The following applies: detailed data not provided.
The subject of the next experiment is nucleolus. In words: Nucleolar transferability stated in the description, no method shown. The format is cell-based.

Consider “5(6)-carboxyfluorescein [Example 5, reference compound]”, for which the MFI in the experiment with HeLa cells turned out to be 10.3.
Turning to Ac-KKRTLRKKKRKKR-FAM [Example 4], the MFI in the experiment with HeLa cells came to 24.3.
Turning to “Ac-KKRTLRKKKRKKRWPC-FAM (Ac-KKRTLRKKKRKKRWPC-{FAM}) [Example 2, foreign substance introduction construct provided with peptide 2, FAM bonded to the C-terminal side]”, in the experiment with HeLa cells, the “MFI compared between examples, in words” value was “significantly higher MFI than Example 4” and the MFI is on record as 121.
Take Ac-KKRTLRKSNRKKR-FAM [Example 3]: in the experiment on HeLa cells, the MFI was 12.4.
Take “Ac-KKRTLRKSNRKKRWPC-FAM (Ac-KKRTLRKSNRKKRWPC-{FAM}) [Example 1, foreign substance introduction construct provided with peptide 1, FAM bonded to the C-terminal side]”: in the experiment with HeLa cells, the “MFI compared between examples, in words” value was “highest among Example 1, Example 3, and Example 3′”; the MFI was found to be 87.5.
The substance FAM-KKRTLRKSNRKKR-CONH2 [Example 3′] returned an MFI in the experiment with HeLa cells of 62.
As for “KKRTLRKKKRKKR (Ac-KKRTLRKKKRKKR) [Peptide 4, variant of LIM kinase 2 NoLS; synthesized with N-terminal acetylation]”, the “cell membrane permeability, statement in words” value in experiment [1] was “higher cell membrane permeability than peptide comprising the amino acid sequence given by SEQ ID NO: 3”. Also, in the experiment on nucleolus, the “nucleolar transferability, in words” value is given as “excellent nucleolar transferability”.
Consider “KKRTLRKKKRKKRWPC (Ac-KKRTLRKKKRKKRWPC) [Peptide 2, carrier peptide fragment; synthesized with N-terminal α-amino group acetylated]”, for which the “cell membrane permeability, conclusion in words” value in the experiment on HeLa cells (listed as SEQ ID NO: 2) is “better cell membrane permeability than peptide composed of the amino acid sequence given by SEQ ID NO: 5”.
As for “KKRTLRKSNRKKR (Ac-KKRTLRKSNRKKR) [Peptide 3, variant of LIM kinase 2 NoLS; synthesized with N-terminal acetylation]”, the “cell membrane permeability, statement in words” value in experiment [1] is reported as “higher cell membrane permeability than peptide comprising the amino acid sequence given by SEQ ID NO: 3”.
For the substance “KKRTLRKSNRKKRWPC (Ac-KKRTLRKSNRKKRWPC) [Peptide 1, carrier peptide fragment; synthesized with N-terminal α-amino group acetylated]”, in the experiment with HeLa cells (listed as SEQ ID NO: 1), the “cell membrane permeability, conclusion in words” value was “better cell membrane permeability than peptide composed of the amino acid sequence given by SEQ ID NO: 4”.
